In publication PMC11393688, “Design and synthesis of new 1,2,4-oxadiazole/quinazoline-4-one hybrids with antiproliferative activity as multitargeted inhibitors” (Frontiers in Chemistry, 2024):

Assays:
A-549 cells = test: Apoptosis induction assay, Annexin V/PI flow cytometry; type: cell-based, human; conditions: A-549, Annexin V/PI, 24 h
Method: To assess 9b′s potential to induce apoptosis, A-549 cells were labeled with Annexin V/PI, grown for 24 h, and evaluated.
Compound 9b was investigated for its effects on cell cycle progression and apoptosis induction in A-549 cells. […] The cell line was labeled with PI/Annexin V, and flow cytometry was done with a BD FASC Caliber ([El-Sherief et al., 2018]). See Supplementary Appendix A for more details. […]
served as positive control. To study the effect of compounds on cell-based pERK1/2 activity in cancer cells, commercially available ELISA kits (Invitrogen) were used according to manufacturer’s instructions.
4.2.1.6. Cell apoptosis assay
Apoptosis was determined by flow cytometry based on the Annexin-V-fluoresce in isothiocyanate (FITC) and propidium iodide (PI) staining kit (BD Pharmingen, San Diego, USA).
(FITC) and propidium iodide (PI) staining kit (BD Pharmingen, San Diego, USA). Apoptotic cells were defined as Annexin-V-positive. Cells were grown to approximately ∼70% confluence and exposed to different concentrations of compounds (0, 2, 4, 6 and8 μmol/L) for 24 h. […] Subsequently, cells were analyzed by flow cytometry (Becton Dickinson, Franklin Lakes, and USA). […]
Computerized Prism 5 program was used to statistically analyzed data using one-way ANOVA test followed by Tukey’s as post ANOVA for multiple comparison at P ≤.05. […]

EGFR = target: T1, EGFR (Homo sapiens, UniProt P00533); test: EGFR-TK inhibitory assay; type: biochemical; conditions: read-out: EGFR inhibition IC50 ± SEM
T1 construct: amino acids 645–1186; His6 (N); made in house; host or cells: Sf-9 insect cells (baculovirus; pBlueBacHis2B / pFASTBacHTc)
Method: 4.2.1.3. EGFR inhibitory assay
Sf-9 cells were infected for 72h for protein expression. […]
centrifugation for 20 min.
Histidine-linked proteins were first eluted with 250 and then […]
using wash buffer. Europium-tagged antiphosphotyrosine antibody (75 µL, 400 ng) was added to each well followed by incubation of 1h and then washing of the plates using buffer. The enhancement solution was added to each well and the signal was recorded at excitation and […]
The autophosphorylation percentage inhibition by compounds was calculated using the following equation: […]
(1 picture or pasted object on this page, not shown here)

EGFR^T790M = EGFR^T790M (Homo sapiens, UniProt P00533, T790M); test: EGFR^T790M inhibitory assay (HTRF KinEASE-TK)
[1] = system: colon cancer (HT-29) cell line; test: Antiproliferative MTT assay, HT-29; type: cell-based; conditions: Homo sapiens, HT-29 colon cancer cells, read-out: Antiproliferative activity IC50 ± SEM HT-29

T1 sequence (P00533 669-1210): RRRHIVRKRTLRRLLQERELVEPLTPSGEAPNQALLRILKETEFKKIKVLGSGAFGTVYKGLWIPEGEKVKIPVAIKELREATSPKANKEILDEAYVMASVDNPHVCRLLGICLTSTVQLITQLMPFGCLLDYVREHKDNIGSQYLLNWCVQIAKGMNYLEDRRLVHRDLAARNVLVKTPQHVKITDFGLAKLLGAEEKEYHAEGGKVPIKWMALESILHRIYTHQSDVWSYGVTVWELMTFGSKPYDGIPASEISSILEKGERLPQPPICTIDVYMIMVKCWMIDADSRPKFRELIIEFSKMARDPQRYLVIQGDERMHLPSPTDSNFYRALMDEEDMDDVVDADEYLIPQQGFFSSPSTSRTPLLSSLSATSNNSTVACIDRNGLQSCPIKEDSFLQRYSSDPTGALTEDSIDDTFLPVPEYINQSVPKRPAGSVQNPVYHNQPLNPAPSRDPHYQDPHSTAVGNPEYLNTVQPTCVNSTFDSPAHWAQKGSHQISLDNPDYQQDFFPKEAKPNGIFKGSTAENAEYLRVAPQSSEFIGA
EGFR^T790M, sequence (P00533 25-1210 T790M): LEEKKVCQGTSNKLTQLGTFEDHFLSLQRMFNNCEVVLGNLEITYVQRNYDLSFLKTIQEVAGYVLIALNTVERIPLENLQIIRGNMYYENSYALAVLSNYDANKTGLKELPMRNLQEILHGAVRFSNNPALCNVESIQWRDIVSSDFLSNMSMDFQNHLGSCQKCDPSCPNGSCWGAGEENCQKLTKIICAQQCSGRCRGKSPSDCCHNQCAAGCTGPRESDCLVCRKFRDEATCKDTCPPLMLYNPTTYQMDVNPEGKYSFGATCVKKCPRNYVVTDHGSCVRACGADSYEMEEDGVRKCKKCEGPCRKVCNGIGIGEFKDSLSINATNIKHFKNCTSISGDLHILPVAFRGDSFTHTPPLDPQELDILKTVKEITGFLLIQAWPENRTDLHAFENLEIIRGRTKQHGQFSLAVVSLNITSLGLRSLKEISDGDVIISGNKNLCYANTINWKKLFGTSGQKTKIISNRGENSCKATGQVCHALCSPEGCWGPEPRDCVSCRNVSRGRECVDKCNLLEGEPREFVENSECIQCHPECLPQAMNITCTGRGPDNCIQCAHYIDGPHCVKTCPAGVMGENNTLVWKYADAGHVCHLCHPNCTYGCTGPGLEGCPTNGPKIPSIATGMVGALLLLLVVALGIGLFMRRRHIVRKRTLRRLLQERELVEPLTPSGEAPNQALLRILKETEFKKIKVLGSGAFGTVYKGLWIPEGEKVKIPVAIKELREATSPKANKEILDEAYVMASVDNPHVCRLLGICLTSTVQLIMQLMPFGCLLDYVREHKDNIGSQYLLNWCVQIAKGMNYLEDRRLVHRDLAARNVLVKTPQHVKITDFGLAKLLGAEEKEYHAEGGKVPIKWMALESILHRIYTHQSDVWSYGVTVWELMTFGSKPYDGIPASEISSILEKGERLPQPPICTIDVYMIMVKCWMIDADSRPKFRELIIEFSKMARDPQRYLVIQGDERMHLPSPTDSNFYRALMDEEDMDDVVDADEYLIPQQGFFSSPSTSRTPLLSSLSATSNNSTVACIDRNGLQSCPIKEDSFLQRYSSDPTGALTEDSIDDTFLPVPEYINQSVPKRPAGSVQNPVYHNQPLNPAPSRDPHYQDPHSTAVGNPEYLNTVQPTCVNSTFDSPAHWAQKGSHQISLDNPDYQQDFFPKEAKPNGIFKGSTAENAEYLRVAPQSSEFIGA

`O=c1c2ccccc2nc(SCc2nc(-c3ccc(Cl)cc3)no2)n1-c1ccccc1` [Compound 9b, 2-((3-(4-Chlorophenyl)-1,2,4-oxadiazol-5-yl)methylthio)-3 phenylquinazolin-4(3H)-one] showed a Necrosis percentage (A-549 cells) of 6.43%, an IC50 (EGFR) of 57 ± 4 nM and an IC50 (EGFR^T790M) of 10 ± 1 nM. For the same compound, the IC50 [1] was 24 ± 2 nM.
